Experimental data taken from US5767120A, “Tricyclic derivatives, compositions and methods of use” (Schering Corporation, priority 1995, dated 1998).

How the values were obtained:
TNF-α = experiment: Inhibition of LPS-Induced TNF-α Production From the Murine Cell Line WEHI-265; assay type: cell-based; settings: Mus musculus, WEHI-265 cells, 20-24 hours
Description: This test procedure is a standard test used to determine anti-TNF-α activity and to evaluate the usefulness of said compounds for counteracting the biological effects of TNF-α.
1. In Vitro Study: Inhibition of LPS-Induced TNF-α Production From the Murine Cell Line WEHI-265
1) Cells (obtained from cell cultures containing ≤10^6 cells/ml) are suspended at 0.2×10^6 cells/ml in complete medium (RPMI1640, with 10% FCS, 10^-5 M 2-ME, 2 mM glutamine and 10 mM HEPES buffer) and plated in CoStar 24 well plates (1.0 ml/well).
2) Compounds are dissolved in the appropriate vehicle at 400 times the concentration to be tested, and 5 μl of compound is added to the wells.
3) LPS (from E. coli 0111:B4) is diluted to 6 μg/ml and 1.0 ml is added to wells.
4) Plates are incubated 20-24 hours in 37° CO02 incubator.
5) Supernatant fluids are collected and analyzed for TNF content as described in J. ImmunoL, 142:3884.

[1] = Inhibition of LPS/Galactosaimine-Induced Lethality (septic shock); assay type: in vivo, Mice (C57BI/6J males); settings: 25 mg/kg orally or i.p. one hour before LPS (100 ng) and d-galactosamine (8 mg) i.p.; survival 24 hours after challenge
Description: This test procedure is a standard test used to determine activity against septic shock.
3. In Vivo Study: Inhibition of LPS/Galactosaimine-Induced Lethality
1) Mice (C57BI/6J males, 6-8 weeks of age) are dosed with the indicated compound (dissolved in CMC suspension vehicle; compounds are given orally or i.p. one hour before challenge with LPS and d-galactosamine).
2) Mice are challenged i.p. with a mixture of LPS (from E. coli 0111:B4; 100 ng) and d-galactosamine (8 mg).
3) Survival is determined 24 hours after challenge. See procedure published in J. Exp. Med. 165:657 (1987)

serum TNF = experiment: Inhibition of LPS-Induced Serum TNF; assay type: in vivo, Mice (C57BI/6J males); settings: Mus musculus, 1.5 h; 25 mg/kg orally or i.p. one hour before LPS (50 μg i.p.); serum 90 min after LPS; values may be subject to a wide margin of error
Description: In addition to the in vitro test described above, the following in vivo test was also performed on several of the compounds of the present invention.
2. In Vivo Study: Inhibition of LPS-Induced Serum TNF
1) Mice (C57BI/6J males, 6-8 weeks of age) are dosed with the indicated compound (dissolved in CMC suspension vehicle; compounds are given orally or i.p. one hour before LPS challenge).
3) Mice are bled 90 min after LPS challenge.
4) Sera are analyzed for TNF content by ELISA as described in J. Immunol.

SMILES | inhibition at 10 µM (TNF-α) [%] | # dead/total at 25 mg/kg [1] | inhibition in vivo at 25 mg/kg (serum TNF) [%]
CCOC1(CCN(C)S(C)(=O)=O)c2ccccc2CCc2ccccc21 [Compound IN, N-[2-(5-ethoxy-10,11-dihydro-5H-dibenzo[a,d]cycloheptenyl)ethyl]-N-methyl-methanesulfonamide] | 19 | 6/9 | –
CCOCC1(CN)c2ccccc2CCc2ccccc21 [IX] | 29 | 9/10 | 3
CN(C)CCC1(C)c2ccccc2CCc2ccccc21 [IOO] | 16 | – | –
CCCC1(CN)c2ccccc2CCc2ccccc21 [Compound IH, 10,11-dihydro-5-propyl-5H-dibenzo[a,d]cycloheptene-5-methanamine] | 77 | – | –
CCOC(=O)CN(C)CCC1(OCC)c2ccccc2CCc2ccccc21 [IHH] | 40 | – | –
CCOC1(CCN(C)C(=O)c2ccc(C(=O)O)cc2)c2ccccc2CCc2ccccc21 [Compound IGG, 4-[[N-[2-[5-ethoxy-10,11-dihydro-5H-dibenzo[a,d]cyclohepten-5-yl]ethyl]-N-methyl]oxo]benzoic acid] | 4 | 10/10 | 0
C=CCC1(CCN(C)C)c2ccccc2CCc2ccccc21 [Compound IE, 10,11-dihydro-N,N-dimethyl-5-(2-propenyl)-5H-dibenzo[a,d]cycloheptene-5-(2-ethanamine)] | 67 | 0/9 | 48
C=CCC1(CCN(C)C(=O)OCC)c2ccccc2CCc2ccccc21 [Compound ICC] | 42 | – | –
CCOC1(CCN(C)C(=O)c2cc[n+]([O-])cc2)c2ccccc2CCc2ccccc21 [IT] | 14 | 9/9 | –
C=CCC1(CCNC)c2ccccc2COc2ccccc21 (stereo not drawn) [ILL] | 50 | 3/10 | 44
CCOC1(CCN(C)S(=O)(=O)c2ccccc2)c2ccccc2CCc2ccccc21 [IW] | 47 | 8/10 | –
C=CCC1(CCN2CCCC2)c2ccccc2CCc2ccccc21 [IO] | 66 | 5/9 | 47
CCOC1(CCN(C)C)c2ccccc2COc2ccccc21 (stereo not drawn) [IB] | 33 | 0/9 | 70
CCOC1(CCN(C)C)c2ccccc2CCc2ccc(Cl)cc21 (stereo not drawn) [Compound IS] | – | 3/10 | –
C=CCC1(CCN(C)C(C)=O)c2ccccc2CCc2ccccc21 [IR] | 61 | – | 36
CCCC1(CCC=NO)c2ccccc2CCc2ccccc21 [ITT] | 4 | – | –
C=CCCC1(CCN(C)C)c2ccccc2CCc2ccccc21 [INN] | 75 | – | –
CCCC1(CCN(C)C)c2ccccc2COc2ccccc21 (stereo not drawn) [ID] | 62 | – | 67
CCOC1(CCN(C)C(C)=O)c2ccccc2CCc2ccccc21 [IJ] | 48 | 8/8 | –
CCCC1(CCN(C)C)c2ccccc2CCc2ccc(Cl)cc21 (stereo not drawn) [IQQ] | 42 | – | –
CCOC1(CCNC)c2ccccc2COc2ccccc21 (stereo not drawn) [Compound IU] | 25 | 8/9 | 21
C=CCC1(CC=NO)c2ccccc2CCc2ccccc21 [Compound IUU, 2-[10,11-dihydro. 5-(2-propenyl)-5H-dibenzo[a,d]cyclohepten-5-yl]-ethanone oxime] | 29 | – | –
CCOC1(CCN(C)C(=O)c2ccc(C(=O)OC)cc2)c2ccccc2CCc2ccccc21 [IFF] | 44 | 9/9 | 0
